Assay results as given in ChEMBL document CHEMBL1201861, “Genomics of Drug Sensitity in Cancer screening data, Wellcome Trust Sanger Institute”.
pIC50: −log10 of the molar value.

Experiments:
Test in all cases: cells
Ca9-22 = format: functional, cell-based, Homo sapiens; conditions: Homo sapiens, Ca9-22;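 further: growth inhibition of Ca9-22 cells, read out with a cell viability assay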
Description: SANGER: Inhibition of human Ca9-22 cell growth in a cell viability assay.

GT3TKB = format: functional, cell-based, Homo sapiens; conditions: Homo sapiens, GT3TKB;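 further: growth inhibition of the cell line, read out with a cell viability assay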
Description: SANGER: Inhibition of human GT3TKB cell growth in a cell viability assay.

TE-9 = format: functional, cell-based, Homo sapiens; conditions: Homo sapiens, TE-9;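 further: cell growth inhibition, measured with a cell viability readout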
Description: SANGER: Inhibition of human TE-9 cell growth in a cell viability assay.

HT = format: functional, cell-based; conditions: Homo sapiens
Description: SANGER: Inhibition of human HT cell growth in a cell viability assay.

NOS-1 = format: functional, cell-based, Homo sapiens; conditions: Homo sapiens, NOS-1;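 further: growth inhibition of the human NOS-1 cell line, read out with a cell viability assay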
Description: SANGER: Inhibition of human NOS-1 cell growth in a cell viability assay.

NCI-H747 = format: functional, cell-based; conditions: Homo sapiens;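 further: growth inhibition of human NCI-H747 cells, read out by a cell viability assay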
MDA-MB-415 = format: functional, cell-based; conditions: Homo sapiens
EM-2 = format: functional, cell-based; conditions: Homo sapiens;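 further: growth inhibition of EM-2 cells, read out with a cell viability assay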
Description: SANGER: Inhibition of human EM-2 cell growth in a cell viability assay.

A-375 = format: functional, cell-based, Homo sapiens; conditions: Homo sapiens, A-375;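 further: growth inhibition of A375 cells, read out with a cell viability assay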
Description: SANGER: Inhibition of human A375 cell growth in a cell viability assay.

PA-1 = format: functional, cell-based, Homo sapiens; conditions: Homo sapiens, PA-1;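 further: IC50 for suppression of PA-1 cell proliferation, determined with a cell viability read-out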
Description: SANGER: Inhibition of human PA-1 cell growth in a cell viability assay.

J82 = format: functional, cell-based; conditions: Homo sapiens;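 further: growth inhibition of J82 cells, read out with a cell viability assay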
Description: SANGER: Inhibition of human J82 cell growth in a cell viability assay.

NCI-H2228 = format: functional, cell-based, Homo sapiens; conditions: Homo sapiens, NCI-H2228;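 further: growth inhibition of human NCI-H2228 cells, read out by a cell viability assay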
Description: SANGER: Inhibition of human NCI-H2228 cell growth in a cell viability assay.

TE-12 = format: functional, cell-based; conditions: Homo sapiens;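 further: growth inhibition of TE-12 cells, read out by a cell viability assay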
Description: SANGER: Inhibition of human TE-12 cell growth in a cell viability assay.

KYSE-520 cell line = format: functional, cell-based, Homo sapiens; conditions: Homo sapiens, KYSE-520;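 further: growth inhibition of human KYSE-520 cells, read out with a viability assay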
Description: SANGER: Inhibition of human KYSE-520 cell growth in a cell viability assay.

LS-513 = format: functional, cell-based, Homo sapiens; conditions: Homo sapiens, LS-513
Description: SANGER: Inhibition of human LS-513 cell growth in a cell viability assay.

HH = format: functional, cell-based; conditions: Homo sapiens
Description: SANGER: Inhibition of human HH cell growth in a cell viability assay.

FaDu = format: functional, cell-based, Homo sapiens; conditions: Homo sapiens, FaDu;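 further: cell viability readout of growth inhibition in FaDu cells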
Description: SANGER: Inhibition of human FADU cell growth in a cell viability assay.

NCI-H650 = format: functional, cell-based, Homo sapiens; conditions: Homo sapiens, NCI-H650;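 further: growth inhibition of NCI-H650 cells, read out by a viability assay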
Description: SANGER: Inhibition of human NCI-H650 cell growth in a cell viability assay.

A-431 = format: functional, cell-based, Homo sapiens; conditions: Homo sapiens, A-431;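 further: growth inhibition of A-431 cells, determined with a cell viability read-out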
Description: SANGER: Inhibition of human A431 cell growth in a cell viability assay.

LCLC-97TM1 = format: functional, cell-based, Homo sapiens; conditions: Homo sapiens, LCLC-97TM1;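 further: cell viability assay measuring growth inhibition of human LCLC-97TM1 cells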
Description: SANGER: Inhibition of human LCLC-97TM1 cell growth in a cell viability assay.

COLO-678 = format: functional, cell-based, Homo sapiens; conditions: Homo sapiens, COLO-678
Description: SANGER: Inhibition of human COLO-678 cell growth in a cell viability assay.

NCI-H2126 = format: functional, cell-based, Homo sapiens; conditions: Homo sapiens, NCI-H2126;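 further: growth inhibition of the cancer cell line, determined with a cell viability readout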
Description: SANGER: Inhibition of human NCI-H2126 cell growth in a cell viability assay.

NCI-H720 = format: functional, cell-based; conditions: Homo sapiens;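 further: growth inhibition of human NCI-H720 cells determined by a cell viability assay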
Description: SANGER: Inhibition of human NCI-H720 cell growth in a cell viability assay.

CW-2 = format: functional, cell-based, Homo sapiens; conditions: Homo sapiens, CW-2;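 further: growth inhibition of CW-2 cells, read out by a cell viability assay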
Description: SANGER: Inhibition of human CW-2 cell growth in a cell viability assay.

Ca-Ski = format: functional, cell-based; conditions: Homo sapiens;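 further: cell viability assay measuring inhibition of Ca-Ski cell growth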
Description: SANGER: Inhibition of human Ca-Ski cell growth in a cell viability assay.

PC-3 = format: functional, cell-based, Homo sapiens; conditions: Homo sapiens, PC-3;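 further: cell viability assay measuring growth inhibition of PC-3 cells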
Description: SANGER: Inhibition of human PC-3 cell growth in a cell viability assay.

LS-411N = format: functional, cell-based, Homo sapiens; conditions: Homo sapiens, LS-411N
SK-HEP1 = format: functional, cell-based, Homo sapiens, SK-HEP-1; conditions: Homo sapiens, SK-HEP1;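 further: cell viability readout used to quantify reduction in proliferation of human SK-HEP-1 cells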
Description: SANGER: Inhibition of human SK-HEP-1 cell growth in a cell viability assay.

Detroit 562 = format: functional, cell-based, Homo sapiens; conditions: Homo sapiens, Detroit 562;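 further: growth inhibition of human Detroit 562 cells, read out by a cell viability assay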
KU-19-19 = format: functional, cell-based, Homo sapiens; conditions: Homo sapiens, KU-19-19
Description: SANGER: Inhibition of human KU-19-19 cell growth in a cell viability assay.

PSN1 = format: functional, cell-based, Homo sapiens; conditions: Homo sapiens, PSN1;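 further: suppression of growth of human PSN1 cells, read out by a cell viability assay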
Description: SANGER: Inhibition of human PSN1 cell growth in a cell viability assay.

RERF-LC-MS = format: functional, cell-based, Homo sapiens; conditions: Homo sapiens, RERF-LC-MS;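 further: growth inhibition of human RERF-LC-MS cells, read out by a cell viability assay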
Description: SANGER: Inhibition of human RERF-LC-MS cell growth in a cell viability assay.

HPAF-II = format: functional, cell-based, Homo sapiens; conditions: Homo sapiens, HPAF-II;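 further: growth inhibition of HPAF-II cells, read out with a cell viability assay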
Description: SANGER: Inhibition of human HPAF-II cell growth in a cell viability assay.

MPP-89 = format: functional, cell-based, Homo sapiens; conditions: Homo sapiens, MPP-89;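 further: growth inhibition of human MPP-89 cells, read out with a cell viability assay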
Description: SANGER: Inhibition of human MPP-89 cell growth in a cell viability assay.

HEC-1 = format: functional, cell-based, Homo sapiens; conditions: Homo sapiens, HEC-1;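 further: growth inhibition of the cell line, read out with a cell viability assay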
Description: SANGER: Inhibition of human HEC-1 cell growth in a cell viability assay.

COLO-824 = format: functional, cell-based, Homo sapiens; conditions: Homo sapiens, COLO-824
Description: SANGER: Inhibition of human COLO-824 cell growth in a cell viability assay.

SW837 = format: functional, cell-based, Homo sapiens; conditions: Homo sapiens, SW837;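 further: growth inhibition of SW837 cells, determined with a cell viability assay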
Description: SANGER: Inhibition of human SW837 cell growth in a cell viability assay.

HT-3 = format: functional, cell-based, Homo sapiens; conditions: Homo sapiens, HT-3;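 further: growth inhibition measured with a cell viability readout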
Description: SANGER: Inhibition of human HT-3 cell growth in a cell viability assay.

NCI-H2087 = format: functional, cell-based, Homo sapiens; conditions: Homo sapiens, NCI-H2087;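 further: growth inhibition determined with a cell viability readout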
Description: SANGER: Inhibition of human NCI-H2087 cell growth in a cell viability assay.

LB2518-MEL = format: functional, cell-based, Homo sapiens; conditions: Homo sapiens, LB2518-MEL;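 further: growth inhibition of human LB2518-MEL cells, measured with a cell viability assay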
Description: SANGER: Inhibition of human LB2518-MEL cell growth in a cell viability assay.

NEC8 = format: functional, cell-based, Homo sapiens; conditions: Homo sapiens, NEC8;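 further: growth inhibition of human NEC8 cells, read out by a cell viability assay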
Description: SANGER: Inhibition of human NEC8 cell growth in a cell viability assay.

LU-139 = format: functional, cell-based; conditions: Homo sapiens
Description: SANGER: Inhibition of human LU-139 cell growth in a cell viability assay.

AM-38 = format: functional, cell-based, Homo sapiens; conditions: Homo sapiens, AM-38;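 further: growth inhibition of AM-38 cells of human origin, read out by a cell viability assay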
A3-KAW = format: functional, cell-based; conditions: Homo sapiens;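 further: growth inhibition of human A3-KAW cells, read out with a cell viability assay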
Description: SANGER: Inhibition of human A3-KAW cell growth in a cell viability assay.

LAMA-84 = format: functional, cell-based; conditions: Homo sapiens;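 further: growth inhibition of LAMA-84 cells, read out with a cell viability assay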
Description: SANGER: Inhibition of human LAMA-84 cell growth in a cell viability assay.

SF-295 = format: functional, cell-based, Homo sapiens; conditions: Homo sapiens, SF-295; read-out: IC50;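 further: growth inhibition of SF-295 cells, read out with a cell viability assay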
Description: SANGER: Inhibition of human SF295 cell growth in a cell viability assay.

P12-Ichikawa = format: functional, cell-based; conditions: Homo sapiens
AGS = format: functional, cell-based, Homo sapiens; conditions: Homo sapiens, AGS;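 further: growth inhibition of AGS cells, determined with a cell viability assay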
Description: SANGER: Inhibition of human AGS cell growth in a cell viability assay.

Capan-2 = format: functional, cell-based, Homo sapiens; conditions: Homo sapiens, Capan-2;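 further: Capan-2 cell growth inhibition, read out with a viability assay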
EW-13 = format: functional, cell-based; conditions: Homo sapiens;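 further: growth inhibition of EW-13 cells, read out with a cell viability assay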
Description: SANGER: Inhibition of human EW-13 cell growth in a cell viability assay.

CAL-85-1 = format: functional, cell-based; conditions: Homo sapiens;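 further: growth inhibition of human CAL-85-1 cells, read out with a cell viability assay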
ONS-76 = format: functional, cell-based, Homo sapiens; conditions: Homo sapiens, ONS-76;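 further: growth inhibition of human ONS-76 cells, read out with a cell viability assay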
Description: SANGER: Inhibition of human ONS-76 cell growth in a cell viability assay.

HEL = format: functional, cell-based, Homo sapiens; conditions: Homo sapiens, HEL;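 further: growth inhibition of HEL cells, read out with a cell viability assay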
Description: SANGER: Inhibition of human HEL cell growth in a cell viability assay.

Measured: pIC50

Cc1ccc(Nc2nccc(N(C)c3ccc4c(C)n(C)nc4c3)n2)cc1S(N)(=O)=O [PAZOPANIB]
5.69: J82
6.18: NOS-1
< 5.10: all other assays above

CN(c1ncccc1CNc1nc(Nc2ccc3c(c2)CC(=O)N3)ncc1C(F)(F)F)S(C)(=O)=O [PF-00562271]
6.08: NCI-H650
5.82: AGS
5.79: EW-13
5.74: CAL-85-1
5.87: Detroit 562
< 5.59: all other assays above
